# Measurements as given in US11912691B2, “Tocotrienols derivates, methods and uses thereof” (GLOBAL SCIENTIFIC, priority 2020, dated 2024).
# “Also recorded” adds a separate entry of the source. Like-named read-outs stand apart in the source and are kept apart here.
# Key:
# [1] = Chemical stability in a cosmetic formulation, accelerated aging test (45° C., 3 months); settings: for % of the Compound after 3 Months: 0.1% m/m in cosmetic formulation, oven at 45° C., HPLC; for Stability in the cosmetic formulation (in words): 45° C., ferulyl compound also in cold storage; for % of the Compound after 3 Months / Stability in the cosmetic formulation (in words): 3 months
# Procedure: In an embodiment, the chemical stability of the modified molecules was evaluated in accelerated degradation tests. For this purpose, the test molecules were formulated in a cosmetic relevant formulation and its degradations were assessed for a period of 3 months.
# In an embodiment, the cosmetic formulation may comprise water, jojoba seed oil, butylene glycol, squalane, sodium hyaluronate, cetearyl alcohol and a carbomer.
# In an embodiment, test molecules were added to the cosmetic formulation at 0.1% m/m level, thoroughly homogenized to ensure uniform dispersion and stored in closed glass bottles in an oven at 45° C. for 3 months. In order to evaluate homogeneity and stability, 3 samples were collected from random positions immediately after preparation and at each time point evaluated. The quantification of the test molecules was performed by HPLC.
# In an embodiment, the preparation of the mixtures for evaluation of the stability was performed according to the following experimental protocol. The mass of compound was weighed and dissolved in 2-(2-ethoxyethoxy)ethanol (also weighed) and added to a known mass of moisturizer product. The mixture was homogenized, and 3 samples were collected to confirm homogenous distribution and initial concentration of modified molecules. The mixtures were then stored in an oven at 45° C. for 3 months (Table IV).
# In an embodiment, the stability of the test molecules in the cosmetic formulation was determined. The test mixtures were sampled in triplicate from random zones. The samples were prepared for analysis by solubilizing them in acetonitrile and the quantification of the modified and non-modified tocopherol and tocotrienol molecules was performed by HPLC. The % of the initial compounds is described in Table IV.
# [2] = for Rank of the nicotinic acid level in the permeate solutions: within molecules without a linker / within molecules with a linker
# Procedure: In an embodiment, the penetration into human skin and the conversion of the modified tocotrienols and modified α-tocotrienols with linkers molecules in the human skin were evaluated by permeation experiments using Franz diffusion cells. The conversion profile was evaluated and quantified by measuring nicotinic acid or nicotinyl alcohol in the permeate solutions.
# In an embodiment, the skin permeation of the modified compounds was assessed. The permeation tests were performed with full thickness human skin. These samples were obtained at a local hospital, from healthy donors undergoing cosmetic surgery. The excised skin was stored in a PBS solution containing 10% antibiotic and maintained at 4° C., until further processing in the laboratory. When the skin sample was received, the underlying fat tissue was removed and discarded. The remaining skin (dermis and epidermis layers) was cut into pieces of approximately 1.5×1.5 cm. When the permeation experiments were executed with fresh skin, the samples were immediately used. Otherwise, the pre-cut skin samples were frozen at −80° C. and stored for further use. When reclaiming the frozen skin samples, the samples were removed from storage and thawed to room temperature for 1 hour before further manipulation.
# The permeation experiments were performed in Franz diffusion cells. These diffusion cells are constituted by a donor compartment, where the formulation containing the permeate molecule is placed, and a receptor compartment containing the receptor fluid where the permeate molecule is collected and accumulated in time. The skin sample is placed between the donor and receptor compartments and is also equipped with a sampling access that allows for the collection of samples (a certain volume of the receptor fluid) without requiring the disassembly of the cell and therefore allows for the permeation experiment to continue (FIG. 3).
# At the start of the experiment, the receptor compartment is filled with the receptor fluid, the skin sample is placed in place with care so as to not form air bubbles underneath. The donor receptor is positioned in place and clamped. The assembly is then placed in the thermostatic (37° C.) bath for 30 min to allow temperature equilibration. After the equilibration time, the level of the receptor fluid is adjusted as necessary. The receptor compartment is equipped with a magnetic mixer, ensuring the solution homogeneity during the course of the permeation experiment.
# In an embodiment, the permeate solutions are monitored for the presence of nicotinic acid released from the modified tocopherol and tocotrienols molecules. The amount of nicotinic acid is quantified by HPLC using an ion pairing method. The concentration of nicotinic acid is calculated from a standard calibration curve of known nicotinic acid concentration solutions measured in the same conditions. The HPLC analysis is performed on a Knauer chromatograph consisting of 3 modules: Smartline manager 5000, Smartline pump 1000 and Smartline UV Detector 2600. The UV detector is fitted with a photodiode array (PDA) which allows for the continuous monitoring from 190-450 nm. The online chromatograms are monitored at 254 nm. The eluent comprises an ion-pairing eluent (50 mM of tetrabutylammonium hydroxide (TBAOH), pH corrected to 7.4 with hydrogenphosphate dibasic ([…])) containing 10% of acetonitrile at a flow of 1 mL/min and the column used is an Atlantis T3 4.6×250 mm (with guard column of same type 4.6×20 mm) at 30° C.
# In an embodiment, the skin permeation experiments are performed with formulations of different concentrations of modified tocotrienol and tocopherol molecules. The modified molecules are dissolved at concentrations of 5% and 10% m/m in a mixture of equal volumes of 2-(2-ethoxyethoxy)ethanol and propylene glycol and 150 μl of these solutions are applied on the skin samples.
# [3] = modified α-tocotrienols with linkers, donor solution 10% m/m, 24 hours
# [4] = modified α-tocotrienols with linkers, donor solution 10% m/m, 48 hours
# [5] = donor solution 5% m/m, 48 hours, human skin, Franz cell
# [6] = donor solution 10% m/m, 48 hours, human skin, Franz cell
smiles,measurement,setting,value
CC(C)=CCCC(C)=CCCC(C)=CCCC1(C)CCc2c(C)c(OC(=O)CCC(=O)OCc3cccnc3)c(C)c(C)c2O1 (stereo not drawn) [α-tocotrienyl nicotinyl succinate],Remaining fraction of the initial mass after 3 months of accelerated aging,[1],> 95%
same,% of the Compound after 3 Months,[1],≥95%
CC(C)=CCC/C(C)=C/CC/C(C)=C/CCC1(C)CCc2c(C)c(OC(=O)COC(=O)c3cccnc3)c(C)c(C)c2O1 (stereo not drawn) [α-tocotrienyl glycolyl nicotinate],% of the Compound after 3 Months,[1],≥95%
same,Stability in the cosmetic formulation (in words),[1],excellent stability
same,Rate of conversion into the parent molecules relative to the other modified tocotrienols,[2]; human skin,higher rate
same,Concentration of nicotinic acid in the permeate solution,[2]; [3],3020 ng/mL
same,Concentration of nicotinic acid in the permeate solution,[2]; [4],8180 ng/mL
same,Rank of the nicotinic acid level in the permeate solutions,[2],highest level
CC(C)=CCCC(C)=CCCC(C)=CCCC1(C)CCc2cc(OC(=O)c3cccnc3)cc(C)c2O1 (stereo not shown) [δ-tocotrienyl nicotinate],% of the Compound after 3 Months,[1],≥95%
CC(C)=CCC/C(C)=C/CC/C(C)=C/CCC1(C)CCc2c(C)c(OC(=O)c3cccnc3)c(C)c(C)c2O1 (stereo not drawn) [α-tocotrienyl nicotinate],% of the Compound after 3 Months,[1],≥95%
same,Concentration of nicotinic acid in the permeate solution,"[2]; donor solution 5% m/m, 24 hours, human skin, Franz cell",320 ng/mL
same,Concentration of nicotinic acid in the permeate solution,"[2]; donor solution 5% m/m, 33 hours, human skin, Franz cell",540 ng/mL
same,Concentration of nicotinic acid in the permeate solution,[2]; [5],890 ng/mL
same,Concentration of nicotinic acid in the permeate solution,[2]; [6],2830 ng/mL
same,Rate of conversion into the parent molecules relative to the other modified tocotrienols,[2]; human skin,higher rate
same,Release of nicotinic acid relative to α-tocopheryl nicotinate,"[2]; human skin, Franz cell",faster
same,Release of nicotinic acid relative to γ-tocotrienyl nicotinate or δ-tocotrienyl nicotinate,"[2]; human skin, Franz cell",three times faster
same,Rank of the nicotinic acid level in the permeate solutions,[2],highest level
COc1cc(/C=C/C(=O)Oc2c(C)c(C)c3c(c2C)CCC(C)(CC/C=C(\C)CC/C=C(\C)CCC=C(C)C)O3)ccc1OC(=O)c1cccnc1 (stereo not drawn) [α-tocotrienyl ferulyl nicotinate],% of the Compound after 3 Months,[1],0%
same,Stability in the cosmetic formulation (in words),[1],unstable even in cold storage conditions; also recorded: not stable
same,Concentration of nicotinic acid in the permeate solution,[2]; [3],1190 ng/mL
same,Concentration of nicotinic acid in the permeate solution,[2]; [4],2960 ng/mL
CC(C)=CCC/C(C)=C/CC/C(C)=C/CCC1(C)CCc2cc(OC(=O)c3cccnc3)c(C)c(C)c2O1 (stereo not shown) [γ-tocotrienyl nicotinate],% of the Compound after 3 Months,[1],≥95%
same,Concentration of nicotinic acid in the permeate solution,[2]; [5],90 ng/mL
same,Concentration of nicotinic acid in the permeate solution,[2]; [6],700 ng/mL
CC(C)=CCC/C(C)=C/CC/C(C)=C/CCC1(C)CCc2c(C)c(OC(=O)CNC(=O)c3cccnc3)c(C)c(C)c2O1 (stereo not drawn) [α-tocotrienyl glycinyl nicotinate],% of the Compound after 3 Months,[1],≥95%
same,Stability in the cosmetic formulation (in words),[1],excellent stability
same,Concentration of nicotinic acid in the permeate solution,[2]; [3],180 ng/mL
same,Concentration of nicotinic acid in the permeate solution,[2]; [4],380 ng/mL
"CC(C)=CCC/C(C)=C/CC/C(C)=C/CC[C@]1(C)CCc2cc(O)c(C)c(C)c2O1 [γ-tocotrienol, reference compound]",% of the Compound after 3 Months,[1],20%
"Cc1c(C)c2c(c(C)c1O)CC[C@@](C)(CCC[C@H](C)CCC[C@H](C)CCCC(C)C)O2 [α-tocopherol, reference compound]",% of the Compound after 3 Months,[1],44%
"Cc1c(C)c2c(c(C)c1OC(=O)c1cccnc1)CC[C@@](C)(CCC[C@H](C)CCC[C@H](C)CCCC(C)C)O2 [α-tocopheryl nicotinate, reference compound]",% of the Compound after 3 Months,[1],≥95%
"CC(C)=CCC/C(C)=C/CC/C(C)=C/CC[C@]1(C)CCc2cc(O)cc(C)c2O1 [δ-tocotrienol, reference compound]",% of the Compound after 3 Months,[1],57%
"CC(C)=CCC/C(C)=C/CC/C(C)=C/CC[C@]1(C)CCc2c(C)c(O)c(C)c(C)c2O1 [α-tocotrienol, reference compound]",% of the Compound after 3 Months,[1],53%
